Experimental data from US20250034165A1, “COMPOUND CONTAINING CYCLOALKYL OR HALOALKYL” (CHIA TAI TIANQING PHARMACEUTICAL GROUP CO., LTD., priority 2021, published 2025).
Read-outs that look alike come from different tables or passages of the source.

Legend:
[1] = system: BAF3-EGFR (L858R/T790M/C797S) cells; experiment: Inhibition of proliferation of BAF3-EGFR (L858R/T790M/C797S) cells, CCK-8; format: cell-based; settings: 72 h, read-out: BAF3(EGFR T790M L858R C797S) cell inhibitory activity IC50
Method in brief: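 BaF3 EGFR L858R/T790M/C797S cells seeded at 1.5×10^5 cells/mL in RPMI + 10% FBS, 37 °C, compound added after overnight, duplicates. Viability by CCK-8; % inhibition vs untreated and blank, IC50 by four-parameter fit.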

EGFR (WT) = EGFR (WT) (Homo sapiens (Human), UniProt P00533); experiment: Inhibitory activity for EGFR (WT) kinase; format: biochemical; settings: ATP 5 μM
Sequence of EGFR (WT) (P00533 25-1210): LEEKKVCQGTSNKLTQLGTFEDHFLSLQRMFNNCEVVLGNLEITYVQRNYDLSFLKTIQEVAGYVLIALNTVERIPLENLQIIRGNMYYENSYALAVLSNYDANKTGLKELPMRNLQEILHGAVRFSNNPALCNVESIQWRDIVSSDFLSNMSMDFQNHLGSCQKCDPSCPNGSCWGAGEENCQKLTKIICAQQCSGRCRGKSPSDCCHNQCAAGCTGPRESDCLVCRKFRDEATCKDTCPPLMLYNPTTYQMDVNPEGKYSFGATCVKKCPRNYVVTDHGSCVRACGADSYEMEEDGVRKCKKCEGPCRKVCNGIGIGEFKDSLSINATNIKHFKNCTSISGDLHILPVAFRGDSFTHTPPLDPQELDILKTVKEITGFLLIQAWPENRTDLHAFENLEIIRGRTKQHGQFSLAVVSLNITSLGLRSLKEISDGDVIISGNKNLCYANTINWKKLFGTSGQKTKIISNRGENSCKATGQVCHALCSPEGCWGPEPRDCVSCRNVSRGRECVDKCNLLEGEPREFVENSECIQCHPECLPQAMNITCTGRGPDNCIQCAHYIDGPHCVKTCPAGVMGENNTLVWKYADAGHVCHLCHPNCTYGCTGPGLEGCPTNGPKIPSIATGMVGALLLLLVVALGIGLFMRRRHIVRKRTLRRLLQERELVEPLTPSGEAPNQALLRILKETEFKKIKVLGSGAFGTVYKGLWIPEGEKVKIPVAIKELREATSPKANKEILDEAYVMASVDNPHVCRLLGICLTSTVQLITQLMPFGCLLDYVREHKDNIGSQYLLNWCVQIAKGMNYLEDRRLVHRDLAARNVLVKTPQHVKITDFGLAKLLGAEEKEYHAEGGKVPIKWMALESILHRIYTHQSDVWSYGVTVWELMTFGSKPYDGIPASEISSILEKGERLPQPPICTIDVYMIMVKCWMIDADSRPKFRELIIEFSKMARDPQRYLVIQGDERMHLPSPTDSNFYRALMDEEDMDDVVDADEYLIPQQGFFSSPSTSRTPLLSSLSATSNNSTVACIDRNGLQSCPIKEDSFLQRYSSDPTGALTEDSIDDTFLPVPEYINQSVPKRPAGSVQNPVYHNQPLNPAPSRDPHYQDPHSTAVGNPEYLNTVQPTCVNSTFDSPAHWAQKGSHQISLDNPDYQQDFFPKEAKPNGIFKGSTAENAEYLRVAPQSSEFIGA
Description: A 50 ng/μL EGFR (WT, Carna) stock solution was diluted with a kinase buffer (50 mM HEPES, 10 mM MgCl2, 2 mM DTT, 1 mM EGTA, 0.01% Tween 20), and 6 μL of 1.67× working solution at 0.005 ng/μL (final concentration: 0.003 ng/μL) was added to each well. Different compounds dissolved in DMSO were added to the wells using a nanoliter pipettor, resulting in the final concentrations of the compounds of 100 nM to 0.0244 nM (4-fold gradient for 7 concentrations in total), and blank control wells (without enzyme) and negative control wells (with enzyme, plus vehicle DMSO) were set, 2 replicate wells for each concentration. After enzyme was reacted with the compound or vehicle for 30 min, 5×ATP at 25 μM (final concentration: 5 μM, Sigma) prepared with a kinase buffer was mixed with 5× substrate at 0.5 μM (final concentration: 0.1 μM, ULight-poly GT, PerkinElmer) at a ratio of 1:1 (v:v), and the mixture was added to each well at 4 μL/well. After being sealed with a film, the plate was incubated at room temperature for 2 h, and then 5 μL of 4×EDTA at 40 mM (final concentration: 10 mM) was added to each well. After the plate was incubated for 5 min at room temperature, 5 μL of 4× detection reagent at 8 nM (final concentration: 2 nM, Eu-anti-phospho-tyrosine antibody, PerkinElmer) was added to each well. After being incubated at room temperature for 1 h, the plate was read using a PerkinElmer Envision multi-mode microplate reader (excitation: 320 nm, emission: 665 nm), and IC50 was calculated by four-parameter fitting.

EGFR (L858R/T790M) = EGFR (L858R/T790M) (Homo sapiens (Human), UniProt P00533, L858R/T790M); experiment: Inhibitory activity for EGFR (L858R/T790M) kinase; format: biochemical; settings: ATP 5 μM
Sequence of EGFR (L858R/T790M) (P00533 25-1210 T790M/L858R): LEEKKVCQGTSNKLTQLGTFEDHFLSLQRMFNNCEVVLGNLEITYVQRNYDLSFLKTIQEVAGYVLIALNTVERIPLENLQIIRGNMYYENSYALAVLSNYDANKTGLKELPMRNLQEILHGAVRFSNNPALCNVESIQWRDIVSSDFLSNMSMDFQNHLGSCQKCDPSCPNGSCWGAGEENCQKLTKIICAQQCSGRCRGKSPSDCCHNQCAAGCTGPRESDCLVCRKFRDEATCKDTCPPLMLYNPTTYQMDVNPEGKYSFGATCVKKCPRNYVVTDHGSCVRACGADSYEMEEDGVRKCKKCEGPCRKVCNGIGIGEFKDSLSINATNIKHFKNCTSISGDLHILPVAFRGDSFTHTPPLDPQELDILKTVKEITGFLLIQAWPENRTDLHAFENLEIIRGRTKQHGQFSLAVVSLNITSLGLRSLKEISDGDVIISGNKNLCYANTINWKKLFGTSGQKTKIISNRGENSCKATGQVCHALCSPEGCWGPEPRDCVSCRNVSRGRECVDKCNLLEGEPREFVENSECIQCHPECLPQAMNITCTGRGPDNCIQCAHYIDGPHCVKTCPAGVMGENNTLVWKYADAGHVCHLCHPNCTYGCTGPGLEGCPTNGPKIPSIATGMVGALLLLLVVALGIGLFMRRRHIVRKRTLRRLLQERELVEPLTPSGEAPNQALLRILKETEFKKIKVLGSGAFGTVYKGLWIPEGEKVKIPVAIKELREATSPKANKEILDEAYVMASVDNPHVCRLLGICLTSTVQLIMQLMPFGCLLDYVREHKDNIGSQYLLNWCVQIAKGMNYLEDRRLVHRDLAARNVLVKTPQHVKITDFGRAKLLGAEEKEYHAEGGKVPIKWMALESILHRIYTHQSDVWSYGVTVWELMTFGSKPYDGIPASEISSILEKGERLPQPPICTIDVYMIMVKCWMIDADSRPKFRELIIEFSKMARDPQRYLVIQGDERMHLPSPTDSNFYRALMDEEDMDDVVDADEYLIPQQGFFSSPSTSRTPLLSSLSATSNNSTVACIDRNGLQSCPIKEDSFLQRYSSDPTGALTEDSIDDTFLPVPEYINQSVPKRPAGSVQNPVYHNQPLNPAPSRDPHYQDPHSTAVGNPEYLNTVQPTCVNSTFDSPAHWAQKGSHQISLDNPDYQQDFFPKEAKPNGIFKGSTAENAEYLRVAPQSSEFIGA
Description: (§1) A 50 ng/μL EGFR (L858R/T790M, Carna) stock solution was diluted with a kinase buffer (50 mM HEPES, 10 mM MgCl2, 2 mM DTT, 1 mM EGTA, 0.01% Tween 20), and 6 μL of 1.67× working solution at 0.004175 ng/μL (final concentration: 0.0025 ng/μL) was added to each well. Different compounds dissolved in DMSO were added to wells using a nanoliter pipettor, resulting in the final concentrations of the compounds of 10 nM to 0.0024 nM (4-fold gradient, 7 concentrations in total), and blank control wells (without enzyme) and negative control wells (with enzyme, plus vehicle DMSO) were set, 2 replicate wells for each concentration. After enzyme was reacted with the compound or vehicle for 30 min, 5×ATP at 25 μM (final concentration: 5 μM, Sigma) prepared with a kinase buffer was mixed with 5× substrate at 0.5 μM (final concentration: 0.1 μM, ULight-poly GT, PerkinElmer) at a ratio of 1:1 (v:v), and the mixture was added to each well at 4 μL/well. After being sealed with a film, the plate was incubated at room temperature for 2 h, and then 5 μL of 4×EDTA at 40 mM (final concentration: 10 mM) was added to each well. After the plate was incubated for 5 min at room temperature, 5 μL of 4× detection reagent at 8 nM (final concentration: 2 nM, Eu-anti-phospho-tyrosine antibody, PerkinElmer) was added to each well. After being incubated at room temperature for 1 h, the plate was read using a PerkinElmer Envision multi-mode microplate reader (excitation: 320 nm, emission: 665 nm), and IC50 was calculated by four-parameter fitting.

EGFR (L858R/T790M/C797S) = EGFR (L858R/T790M/C797S) (Homo sapiens (Human), UniProt P00533, C797S/L858R/T790M); experiment: Inhibitory activity for EGFR (L858R/T790M/C797S) kinase; format: biochemical; settings: ATP 5 μM
Sequence of EGFR (L858R/T790M/C797S) (P00533 25-1210 T790M/C797S/L858R): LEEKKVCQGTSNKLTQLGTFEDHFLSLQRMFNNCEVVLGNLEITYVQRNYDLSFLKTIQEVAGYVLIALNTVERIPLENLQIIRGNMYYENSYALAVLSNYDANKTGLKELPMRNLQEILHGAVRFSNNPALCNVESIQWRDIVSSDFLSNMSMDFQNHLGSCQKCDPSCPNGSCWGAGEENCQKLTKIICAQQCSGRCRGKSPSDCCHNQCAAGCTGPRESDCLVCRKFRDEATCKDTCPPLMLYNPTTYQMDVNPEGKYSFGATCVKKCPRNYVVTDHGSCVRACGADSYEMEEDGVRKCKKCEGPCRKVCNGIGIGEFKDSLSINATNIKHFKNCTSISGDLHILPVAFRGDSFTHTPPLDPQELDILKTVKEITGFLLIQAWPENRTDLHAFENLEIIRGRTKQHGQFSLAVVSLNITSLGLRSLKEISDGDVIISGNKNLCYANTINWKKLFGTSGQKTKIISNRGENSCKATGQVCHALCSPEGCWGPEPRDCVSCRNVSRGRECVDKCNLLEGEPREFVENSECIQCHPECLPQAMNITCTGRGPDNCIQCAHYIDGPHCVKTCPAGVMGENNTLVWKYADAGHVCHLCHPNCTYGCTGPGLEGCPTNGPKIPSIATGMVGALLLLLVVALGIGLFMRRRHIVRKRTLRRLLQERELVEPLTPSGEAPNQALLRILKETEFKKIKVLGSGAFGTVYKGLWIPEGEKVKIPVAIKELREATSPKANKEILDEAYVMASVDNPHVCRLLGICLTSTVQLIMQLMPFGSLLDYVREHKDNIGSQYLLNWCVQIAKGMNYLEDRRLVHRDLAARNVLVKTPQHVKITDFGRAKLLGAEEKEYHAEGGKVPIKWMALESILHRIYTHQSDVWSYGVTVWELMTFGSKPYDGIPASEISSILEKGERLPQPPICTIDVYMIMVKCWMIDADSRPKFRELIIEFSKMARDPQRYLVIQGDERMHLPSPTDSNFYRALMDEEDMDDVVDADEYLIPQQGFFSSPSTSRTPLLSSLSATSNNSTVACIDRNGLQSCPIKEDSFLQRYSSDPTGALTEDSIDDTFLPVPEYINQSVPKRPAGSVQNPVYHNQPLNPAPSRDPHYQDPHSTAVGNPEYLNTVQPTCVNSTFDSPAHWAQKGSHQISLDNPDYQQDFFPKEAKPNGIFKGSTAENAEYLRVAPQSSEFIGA
Description: as §1, with “(L858R/T790M/C797S, BPS)” for “(L858R/T790M, Carna)”, “0.00167” for “0.004175”, “0.001” for “0.0025”

Row | IC50 ([1]; Ba/F3 EGFR) [nM] | IC50 (EGFR (WT)) [nM] | IC50 (EGFR (L858R/T790M)) [nM] | IC50 (EGFR (L858R/T790M/C797S)) [nM] | IC50 [1] [nM] | SMILES
1 | < 5 | – | – | – | – | Cc1cc2cc(n1)-c1cnn(C)c1OCCC[C@@H](C1CC1)CN1/C(=N/C2=O)Nc2ccc(NCCN(C)C)cc21 [Example 28]
2 | – | 5.9 | 0.081 | 0.085 | – | Cc1cc2cc(n1)-c1cnn(C)c1OC[C@H](C1CC1)CCCn1c(nc3ccc(NC4COC4)cc31)NC2=O [Example 59]
3 | – | 8 | 0.09 | 0.081 | – | Cc1cc2cc(n1)-c1cnn(C)c1OC[C@H](C1CC1)CCCn1c(nc3cc(NC4COC4)ccc31)NC2=O [Example 60]
4 | < 5 | 6 | 0.01 | 0.177 | – | Cc1cc2cc(n1)-c1cnn(C)c1OCCC[C@@H](C1CC1)CN1/C(=N/C2=O)Nc2cc(NC3(C(F)(F)F)COC3)ccc21 [Example 88]
5 | – | 0.56 | 0.45 | 0.5 | – | C[C@H](Nc1ccc2c(c1)N/C1=N\C(=O)c3cc(F)nc(c3)-c3cnn(C)c3OCCC[C@@H](C3CC3)CN12)C(F)(F)F [Example 9]
6 | – | 0.049 | 0.021 | 0.014 | < 5 | Cc1cc2cc(n1)-c1cnn(C)c1OCCC[C@@H](C1CC1)CN1/C(=N/C2=O)Nc2cc(N[C@H]3CC[C@H](N(C)C)CC3)ccc21 [Example 25]
7 | – | 1.1 | 0.031 | 0.02 | < 5 | Cc1cc2cc(n1)-c1cnn(C)c1OCCC[C@@H](C1CC1)CN1/C(=N/C2=O)Nc2ccc(C=CCCN(C)C)cc21 [Example 24]
8 | < 5 | – | – | – | – | Cc1cc2cc(n1)-c1cnn(C)c1OCCC[C@@H](C1CC1)CN1/C(=N/C2=O)Nc2cc(NC3(C)COC3)ccc21 [Example 29]
9 | – | 0.24 | 0.025 | 0.017 | < 5 | Cc1cc2cc(n1)-c1cnn(C)c1OCCC[C@@H](C1CC1)CN1/C(=N/C2=O)Nc2cc(N[C@H]3CC[C@@H](N(C)C)CC3)ccc21 [Example 26]
10 | – | 0.61 | 0.04 | 0.027 | < 5 | Cc1cc2cc(n1)-c1cnn(C)c1OCCC[C@@H](C1CC1)CN1/C(=N/C2=O)Nc2cc(N[C@H](C)C3COC3)ccc21 [Example 39]
